Experimental data as given in patent US12667626B2, “Compositions and methods relating to erythrocytes with adhered particles” (PRESIDENT AND FELLOWS OF HARVARD COLLEGE, priority 2019, dated 2026).

Columns and labels:
[1] = Chemokine gradient assay (CXCL10 in lung and blood); assay type: in vivo, mice; details: 5× higher dose, free form
Protocol: The chemokine gradient assay was conducted on the early-stage lung metastasis model as follows. To evaluate chemokine gradient restoration capability of the therapy, early-stage spontaneous lung metastasis model was established as described in the previous context. One saline and three treatment groups (5× free CXCL10 chemokine, ImmunoBait with anti-ICAM-1, and erythrocyte hitchhiked ImmunoBait with anti-ICAM-1) were included into the study. Treatments were given starting one week after surgery. Two injection sets were given on day 7 and day 10 after surgery. (n=4-5 for each time point for each group). Mice were sacrificed at 20 mins and 6 h after the second injection, blood was collected by cardiac puncture and lungs were excised. Chemokine content in lungs and blood were quantified as described above.
The chemokine gradient assay was conducted on the early-stage lung metastasis model as follows. To evaluate chemokine gradient restoration capability of the therapy, early-stage spontaneous lung metastasis model was established as described in the previous context. One saline and three treatment groups (5× free CXCL10 chemokine containing 12.5 μg CXCL10, ImmunoBait with anti-ICAM-1 containing 2.5 μg CXCL10, and erythrocyte hitchhiked ImmunoBait with anti-ICAM-1 containing 2.5 μg CXCL10) were included into the study. […] Chemokine content in lungs and blood were quantified as described above.

[2] = tested on: B16F10-Luc melanoma lung metastasis; experiment: Efficacy in early-stage B16F10-Luc lung metastasis model; assay type: in vivo, mice
Protocol: Efficacy studies on in vivo experimental lung metastasis model. Experimental lung metastasis model was established by intravenous injection of 1×10^5 B16F10-Luc cells in to the tail vein of female C57BL/6 mice. Efficacy for the treatment groups was evaluated in an early stage and late stage metastatic models. Mice were randomized based on the bioluminescence intensity in the lungs one day before the first injection of therapies. A control (Saline) group and three treatment groups (DOX-NPs, RBC-NPs, free DOX) at a dose of 5.2 mg/kg were evaluated for their efficacy (n=7 for all groups, unless otherwise specified).
For the early-stage metastatic model, treatments were given starting the day after the inoculation. Four injections were given over six days, i.e. day 1, 3, 5 and 7 after inoculation. On days 6, 8, 10, 12, 18, 23, 31 after inoculation, the mice were imaged using in vivo imaging (Perkin Elmer IVIS Spectrum™, MA, USA). Briefly, mice were injected intraperitoneally with 150 μL of 30 mg/mL Xenolight™-D-luciferin in saline. […] The average radiance (bioluminescence intensity) was evaluated using the software Living System®. The animals were further monitored for their survival.

| Compound | chemokine gradient established [1] | lung metastasis burden inhibited ([2]; day 16, early-stage model) [%] | median survival time ([2]; early-stage model, control 29 days) [days] | body weight change ([2]; treatment period, 5.2 mg/kg) |
| --- | --- | --- | --- | --- |
| CXCL10 [free chemokine] | weak chemokine gradient | – | – | – |
| COc1cccc2c1C(=O)c1c(O)c3c(c(O)c1C2=O)C[C@@](O)(C(=O)CO)C[C@@H]3O[C@H]1C[C@H](N)[C@H](O)[C@H](C)O1 [free drug, doxorubicin] | – | 94.2 | 32 | sharp decline in the body weight |
